Measured values from patent US9776995B2, “Bicyclic sulfonamide compounds as sodium channel inhibitors” (AMGEN INC., priority 2013, dated 2017).
Like-named read-outs stand apart in the source and are kept apart here.

How the values were obtained:
Nav 1.5 = Nav 1.5 (Homo sapiens (Human), UniProt Q14524); experiment: in-vitro Nav 1.5 PX data; conditions: read-out: Nav 1.5 PX IC50
Nav 1.7 = Nav 1.7 (Homo sapiens (Human), UniProt Q15858); experiment: in-vitro Nav 1.7 PX data; type: cell-based
Sequence of Nav 1.7 (Q15858 whole entry): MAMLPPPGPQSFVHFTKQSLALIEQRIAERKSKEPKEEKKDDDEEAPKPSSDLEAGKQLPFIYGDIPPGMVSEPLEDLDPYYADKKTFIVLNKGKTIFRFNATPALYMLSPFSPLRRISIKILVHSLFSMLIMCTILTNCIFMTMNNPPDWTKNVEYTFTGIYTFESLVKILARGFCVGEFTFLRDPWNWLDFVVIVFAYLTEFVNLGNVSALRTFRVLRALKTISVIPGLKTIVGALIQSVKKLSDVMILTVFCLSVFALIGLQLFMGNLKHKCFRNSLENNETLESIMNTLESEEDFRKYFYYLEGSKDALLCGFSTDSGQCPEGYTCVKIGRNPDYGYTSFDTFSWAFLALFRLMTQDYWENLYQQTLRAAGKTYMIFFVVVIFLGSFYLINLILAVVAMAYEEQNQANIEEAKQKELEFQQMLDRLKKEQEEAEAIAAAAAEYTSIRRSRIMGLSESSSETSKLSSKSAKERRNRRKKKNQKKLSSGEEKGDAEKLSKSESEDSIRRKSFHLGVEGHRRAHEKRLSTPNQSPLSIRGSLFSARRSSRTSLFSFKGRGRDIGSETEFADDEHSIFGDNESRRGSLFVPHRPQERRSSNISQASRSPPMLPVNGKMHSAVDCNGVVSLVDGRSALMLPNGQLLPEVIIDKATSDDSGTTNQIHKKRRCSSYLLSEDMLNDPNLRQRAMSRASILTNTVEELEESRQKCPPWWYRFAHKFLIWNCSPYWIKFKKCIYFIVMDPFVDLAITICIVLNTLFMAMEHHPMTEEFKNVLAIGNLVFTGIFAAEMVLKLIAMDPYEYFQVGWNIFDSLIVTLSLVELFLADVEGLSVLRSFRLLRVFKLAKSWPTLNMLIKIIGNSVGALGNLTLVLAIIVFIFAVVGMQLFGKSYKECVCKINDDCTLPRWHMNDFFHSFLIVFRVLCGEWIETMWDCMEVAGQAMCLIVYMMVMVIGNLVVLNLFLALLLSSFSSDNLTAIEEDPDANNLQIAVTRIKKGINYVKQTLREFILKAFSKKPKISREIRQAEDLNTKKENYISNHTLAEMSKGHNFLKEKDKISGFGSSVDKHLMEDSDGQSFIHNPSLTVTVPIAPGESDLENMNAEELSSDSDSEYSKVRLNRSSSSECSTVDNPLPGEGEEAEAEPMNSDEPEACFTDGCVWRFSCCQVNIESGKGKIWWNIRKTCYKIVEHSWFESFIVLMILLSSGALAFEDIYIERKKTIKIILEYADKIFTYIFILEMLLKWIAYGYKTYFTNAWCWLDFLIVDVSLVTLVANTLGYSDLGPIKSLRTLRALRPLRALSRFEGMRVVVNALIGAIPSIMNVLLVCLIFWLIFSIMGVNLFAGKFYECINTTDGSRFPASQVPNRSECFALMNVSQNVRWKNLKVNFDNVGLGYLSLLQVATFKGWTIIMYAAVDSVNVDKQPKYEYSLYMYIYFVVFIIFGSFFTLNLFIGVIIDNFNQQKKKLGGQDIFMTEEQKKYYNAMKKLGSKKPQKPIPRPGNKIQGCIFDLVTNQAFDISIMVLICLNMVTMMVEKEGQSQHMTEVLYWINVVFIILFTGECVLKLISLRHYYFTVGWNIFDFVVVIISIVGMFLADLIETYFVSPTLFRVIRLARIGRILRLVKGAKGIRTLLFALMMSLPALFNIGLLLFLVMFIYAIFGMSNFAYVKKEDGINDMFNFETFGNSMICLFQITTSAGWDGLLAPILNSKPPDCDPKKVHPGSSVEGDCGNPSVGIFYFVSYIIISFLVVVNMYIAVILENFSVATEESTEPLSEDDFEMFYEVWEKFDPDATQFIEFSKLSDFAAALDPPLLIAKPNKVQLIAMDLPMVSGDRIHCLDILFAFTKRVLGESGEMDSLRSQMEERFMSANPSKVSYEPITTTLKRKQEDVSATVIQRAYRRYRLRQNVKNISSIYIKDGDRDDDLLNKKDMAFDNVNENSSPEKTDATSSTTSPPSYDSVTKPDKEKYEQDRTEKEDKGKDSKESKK

Sequence of Nav 1.5 (Q14524 whole entry): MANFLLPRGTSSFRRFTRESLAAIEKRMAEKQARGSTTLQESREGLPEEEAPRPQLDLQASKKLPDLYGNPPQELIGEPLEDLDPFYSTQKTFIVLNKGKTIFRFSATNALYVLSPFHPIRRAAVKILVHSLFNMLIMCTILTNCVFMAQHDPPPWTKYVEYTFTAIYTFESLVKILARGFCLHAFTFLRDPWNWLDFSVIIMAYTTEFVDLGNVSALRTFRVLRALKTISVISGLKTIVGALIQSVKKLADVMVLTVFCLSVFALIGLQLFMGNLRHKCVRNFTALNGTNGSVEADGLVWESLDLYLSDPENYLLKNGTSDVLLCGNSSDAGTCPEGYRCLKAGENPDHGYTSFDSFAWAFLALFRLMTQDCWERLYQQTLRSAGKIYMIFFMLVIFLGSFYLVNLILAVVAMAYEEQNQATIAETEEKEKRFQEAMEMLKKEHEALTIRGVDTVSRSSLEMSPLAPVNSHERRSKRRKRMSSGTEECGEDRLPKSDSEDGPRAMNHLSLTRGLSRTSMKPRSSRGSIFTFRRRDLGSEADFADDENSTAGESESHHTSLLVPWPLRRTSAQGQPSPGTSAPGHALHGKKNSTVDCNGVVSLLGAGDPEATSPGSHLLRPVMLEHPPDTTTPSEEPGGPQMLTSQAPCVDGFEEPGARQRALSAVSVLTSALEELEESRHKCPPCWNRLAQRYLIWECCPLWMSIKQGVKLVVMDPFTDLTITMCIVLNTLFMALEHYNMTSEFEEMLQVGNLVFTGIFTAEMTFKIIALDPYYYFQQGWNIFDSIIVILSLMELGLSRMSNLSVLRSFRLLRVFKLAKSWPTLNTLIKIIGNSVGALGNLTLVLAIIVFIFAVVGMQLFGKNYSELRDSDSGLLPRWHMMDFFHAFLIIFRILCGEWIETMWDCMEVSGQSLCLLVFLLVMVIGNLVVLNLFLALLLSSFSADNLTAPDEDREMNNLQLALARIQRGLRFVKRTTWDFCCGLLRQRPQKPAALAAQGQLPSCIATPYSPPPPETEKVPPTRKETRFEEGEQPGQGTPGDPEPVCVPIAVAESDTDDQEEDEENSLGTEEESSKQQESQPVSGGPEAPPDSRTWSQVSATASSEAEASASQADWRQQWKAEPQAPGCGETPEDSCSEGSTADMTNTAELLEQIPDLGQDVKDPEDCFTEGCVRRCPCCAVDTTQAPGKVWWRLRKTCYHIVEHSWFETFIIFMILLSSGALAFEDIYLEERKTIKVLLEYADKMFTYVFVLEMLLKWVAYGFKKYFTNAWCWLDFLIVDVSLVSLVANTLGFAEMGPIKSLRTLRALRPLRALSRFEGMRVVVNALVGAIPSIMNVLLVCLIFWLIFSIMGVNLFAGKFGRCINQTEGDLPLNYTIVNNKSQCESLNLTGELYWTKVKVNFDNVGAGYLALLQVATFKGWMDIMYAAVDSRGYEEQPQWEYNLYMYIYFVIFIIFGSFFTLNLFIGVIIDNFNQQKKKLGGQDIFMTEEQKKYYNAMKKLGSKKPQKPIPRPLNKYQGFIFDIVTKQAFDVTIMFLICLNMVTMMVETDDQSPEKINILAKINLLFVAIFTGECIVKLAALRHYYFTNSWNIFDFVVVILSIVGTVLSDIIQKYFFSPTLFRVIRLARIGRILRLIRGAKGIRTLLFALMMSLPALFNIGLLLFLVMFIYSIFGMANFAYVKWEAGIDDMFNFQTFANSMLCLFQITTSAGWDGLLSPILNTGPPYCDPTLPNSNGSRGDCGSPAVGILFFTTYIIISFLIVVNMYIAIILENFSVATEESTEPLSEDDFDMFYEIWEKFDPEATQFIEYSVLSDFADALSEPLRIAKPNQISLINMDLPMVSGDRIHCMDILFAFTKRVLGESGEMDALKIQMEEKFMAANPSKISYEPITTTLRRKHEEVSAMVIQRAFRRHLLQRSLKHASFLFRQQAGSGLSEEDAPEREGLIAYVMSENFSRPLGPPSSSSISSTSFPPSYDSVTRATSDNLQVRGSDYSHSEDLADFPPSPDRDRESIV

COc1cc(-c2cc(F)cc(F)c2)c(C#N)cc1-c1ncnc2cc(S(=O)(=O)Nc3ccon3)ccc12 [Example 202, 4-(2-cyano-3′,5′-difluoro-5-methoxy-4-biphenylyl)-N-3-isoxazolyl-7-quinazolinesulfonamide]
IC50 (Nav 1.5; in-vitro PX (PatchXpress) data): > 10 µM
IC50 (Nav 1.7; in-vitro PX (PatchXpress) data): 46 nM

COc1cc(-c2cccc(C(F)(F)F)c2)c(F)cc1-c1nccc2cc(S(=O)(=O)Nc3ccon3)ccc12 [Example 115, 1-(2-fluoro-5-methoxy-3′-(trifluoromethyl)-4-biphenylyl)-N-3-isoxazolyl-6-isoquinolinesulfonamide]
IC50 (Nav 1.5; in-vitro PX data): > 10 µM
IC50 (Nav 1.7; in-vitro PX data): 13.5 nM

COc1cc(-c2cccc(F)c2)c(Cl)cc1-c1nncc2cc(S(=O)(=O)Nc3ncccn3)ccc12 [Example 113, 1-(2-chloro-3′-fluoro-5-methoxy-4-biphenylyl)-N-2-pyrimidinyl-6-phthalazinesulfonamide]
IC50 (Nav 1.5; in-vitro PX data): > 10 µM
IC50 (Nav 1.7; in-vitro PX data): 95 nM

N#CCOc1cc(-c2cccc(F)c2)ccc1-c1nccc2cc(S(=O)(=O)Nc3ccon3)ccc12 [Example 231, 1-(3-(cyanomethoxy)-3′-fluoro-4-biphenylyl)-N-3-isoxazolyl-6-isoquinolinesulfonamide]
IC50 (Nav 1.5; in-vitro PX): > 30 µM
IC50 (Nav 1.7; in-vitro PX): 140 nM

1-(3′-chloro-2-cyano-5-methoxy-5′-methyl-4-biphenylyl)-N-1,3,4-thiadiazol-2-yl-6-isoquinolinesulfonamide [Example 225]
IC50 (Nav 1.5; in-vitro PX): > 10 µM
IC50 (Nav 1.7; in-vitro PX): 11.1 nM

COc1cc(-c2cccc(C(F)(F)F)c2)c(C#N)cc1-c1nccc2cc(S(=O)(=O)Nc3ncon3)ccc12 [Example 118, 1-(2-cyano-5-methoxy-3′-(trifluoromethyl)-4-biphenylyl)-N-1,2,4-oxadiazol-3-yl-6-isoquinolinesulfonamide]
IC50 (Nav 1.5; in-vitro PX data): > 10 µM
IC50 (Nav 1.7; in-vitro PX data): 21 nM

COc1cc(-c2cc(F)cnc2OC)c(C#N)cc1-c1ncnc2cc(S(=O)(=O)Nc3ccon3)ccc12 [Example 201, 4-(5-cyano-4-(5-fluoro-2-methoxy-3-pyridinyl)-2-methoxyphenyl)-N-3-isoxazolyl-7-quinazolinesulfonamide]
IC50 (Nav 1.5; in-vitro PX (PatchXpress) data): > 10 µM
IC50 (Nav 1.7; in-vitro PX (PatchXpress) data): 424 nM

COc1cc(-c2ccc(F)c(C)c2)c(C#N)cc1-c1nccc2cc(S(=O)(=O)Nc3ccncn3)ccc12 [Example 155, 1-(2-cyano-4′-fluoro-5-methoxy-3′-methyl-4-biphenylyl)-N-4-pyrimidinyl-6-isoquinolinesulfonamide]
IC50 (Nav 1.5; in-vitro Nav 1.5 PX data): 23.4 µM
IC50 (Nav 1.7; in-vitro Nav 1.7 PX data): 45.5 nM

COc1cc(Oc2cc(C)cc(C)c2)ccc1-c1nccc2cc(S(=O)(=O)Nc3ccncn3)ccc12 [Example 180, 1-(4-(3,5-dimethylphenoxy)-2-methoxyphenyl)-N-4-pyrimidinyl-6-isoquinolinesulfonamide]
IC50 (Nav 1.5; in-vitro PX (PatchXpress) data): > 10 µM
IC50 (Nav 1.7; in-vitro PX (PatchXpress) data): 520 nM

COc1cc(-c2cc(F)cc(Cl)c2)c(C#N)cc1-c1nccc2cc(S(=O)(=O)Nc3ccon3)ccc12 [Example 86, 1-(3′-chloro-2-cyano-5′-fluoro-5-methoxy-4-biphenylyl)-N-3-isoxazolyl-6-isoquinolinesulfonamide]
IC50 (Nav 1.5; PatchXpress (PX), in vitro): > 10 µM
IC50 (Nav 1.7; PatchXpress (PX), in vitro): 24.4 nM

COc1cc(-c2cc(F)cc(F)c2)ccc1-c1nccc2cc(S(=O)(=O)Nc3ncon3)ccc12 [Example 127, 1-(3′,5′-difluoro-3-methoxy-4-biphenylyl)-N-1,2,4-oxadiazol-3-yl-6-isoquinolinesulfonamide]
IC50 (Nav 1.5; in-vitro PX data): > 10 µM
IC50 (Nav 1.7; in-vitro PX data): 106 nM

COc1cc(-c2cc(F)cc(F)c2)c(Cl)cc1-c1nn(C)c(=O)c2cc(S(=O)(=O)Nc3ccon3)ccc12 [Example 233, 1-(2-chloro-3′,5′-difluoro-5-methoxy-4-biphenylyl)-N-3-isoxazolyl-3-methyl-4-oxo-3,4-dihydro-6-phthalazinesulfonamide]
IC50 (Nav 1.5; in-vitro PX): > 30 µM
IC50 (Nav 1.7; in-vitro PX): 138 nM

COc1cc(Oc2ccc(F)cc2)ccc1-c1nccc2cc(S(=O)(=O)Nc3nncs3)ccc12 [Example 174, 1-(4-(4-fluorophenoxy)-2-methoxyphenyl)-N-1,3,4-thiadiazol-2-yl-6-isoquinolinesulfonamide]
IC50 (Nav 1.5; in-vitro PX (PatchXpress) data): > 10 µM
IC50 (Nav 1.7; in-vitro PX (PatchXpress) data): 141 nM

COc1cc(-c2cc(F)cc(F)c2)ccc1-c1nccc2cc(S(=O)(=O)Nc3ccon3)ccc12 [Example 142, 1-(3′,5′-difluoro-3-methoxy-4-biphenylyl)-N-3-isoxazolyl-6-isoquinolinesulfonamide]
IC50 (Nav 1.5; in-vitro Nav 1.5 PX data): > 30 µM
IC50 (Nav 1.7; in-vitro Nav 1.7 PX data): 168 nM

COc1cc(-c2ccc(Cl)c(C)c2)c(C#N)cc1-c1nccc2cc(S(=O)(=O)Nc3ccon3)ccc12 [Example 82, 1-(4′-chloro-2-cyano-5-methoxy-3′-methyl-4-biphenylyl)-N-3-isoxazolyl-6-isoquinolinesulfonamide]
IC50 (Nav 1.5; PatchXpress (PX), in vitro): > 10 µM
IC50 (Nav 1.7; PatchXpress (PX), in vitro): 26.1 nM

COc1cc(-c2cccc(F)c2)c(Cl)cc1-c1n[nH]c(=O)c2cc(S(=O)(=O)Nc3nncs3)ccc12 [Example 14, 1-(2-CHLORO-3′-FLUORO-5-METHOXY-[1,1′-BIPHENYL]-4-YL)-4-OXO-N-(1,3,4-THIADIAZOL-2-YL)-3,4-DIHYDROPHTHALAZINE-6-SULFONAMIDE]
IC50 (Nav 1.5; in-vitro PX (PatchXpress) data): > 10 µM
IC50 (Nav 1.7): 131 nM

COc1ccc(F)cc1-c1cc(OC)c(-c2ncnc3cc(S(=O)(=O)Nc4ccon4)ccc23)cc1C [Example 191, 4-(5′-fluoro-2′,5-dimethoxy-2-methyl-4-biphenylyl)-N-3-isoxazolyl-7-quinazolinesulfonamide]
IC50 (Nav 1.5; in-vitro PX (PatchXpress) data): > 10 µM

COc1cc(-c2cccc(Cl)c2)c(F)cc1-c1nccc2cc(S(=O)(=O)Nc3ccon3)ccc12 [Example 116, 1-(3′-chloro-2-fluoro-5-methoxy-4-biphenylyl)-N-3-isoxazolyl-6-isoquinolinesulfonamide]
IC50 (Nav 1.5; in-vitro PX data): > 10 µM

COc1cc(-c2cccc(C(F)(F)F)c2)c(F)cc1-c1nn(C)c(=O)c2cc(S(=O)(=O)Nc3nncs3)ccc12 [Example 234, 1-(2-fluoro-5-methoxy-3′-(trifluoromethyl)-4-biphenylyl)-3-methyl-4-oxo-N-1,3,4-thiadiazol-2-yl-3,4-dihydro-6-phthalazinesulfonamide]
IC50 (Nav 1.5; in-vitro PX): > 10 µM

COc1cc(-c2cc(C)c(C)cc2C)c(C#N)cc1-c1nccc2cc(S(=O)(=O)Nc3ccncn3)ccc12 [Example 165, 1-(2-cyano-5-methoxy-2′,4′,5′-trimethyl-4-biphenylyl)-N-4-pyrimidinyl-6-isoquinolinesulfonamide]
IC50 (Nav 1.5; in-vitro Nav 1.5 PX data): > 30 µM

COc1cc(-c2ccc(F)c(C)n2)c(C)cc1-c1ncnc2cc(S(=O)(=O)Nc3ccon3)ccc12 [Example 33]
IC50 (Nav 1.5; in-vitro PX (PatchXpress) data): > 10 µM

COc1cc(-c2ccc(Cl)c(C)c2)c(C#N)cc1-c1nccc2cc(S(=O)(=O)Nc3nncs3)ccc12 [Example 228, 1-(4′-chloro-2-cyano-5-methoxy-3′-methyl-4-biphenylyl)-N-1,3,4-thiadiazol-2-yl-6-isoquinolinesulfonamide]
IC50 (Nav 1.5; in-vitro PX): > 10 µM

COc1cc(-c2cc(C)cc(F)c2)c(C#N)cc1-c1nccc2cc(S(=O)(=O)Nc3ccncn3)ccc12 [Example 164, 1-(2-cyano-3′-fluoro-5-methoxy-5′-methyl-4-biphenylyl)-N-4-pyrimidinyl-6-isoquinolinesulfonamide]
IC50 (Nav 1.5; in-vitro Nav 1.5 PX data): > 30 µM

COc1cc(-c2cc(F)cnc2OC)c(C#N)cc1-c1nccc2cc(S(=O)(=O)Nc3ccon3)ccc12 [Example 83, 1-(5-cyano-4-(5-fluoro-2-methoxy-3-pyridinyl)-2-methoxyphenyl)-N-3-isoxazolyl-6-isoquinolinesulfonamide]
IC50 (Nav 1.5; PatchXpress (PX), in vitro): > 10 µM
